Measured values reported in US20240132431A1, “METHOD FOR ALKYLATING ACIDIC FUNCTIONAL GROUP” (Chugai Seiyaku Kabushiki Kaisha, priority 2021, published 2024).

Target: T1, Bcl-2 protein (Recombinant Human Bcl-2 Protein) (Homo sapiens, UniProt P10415)
T1 construct: purchased Novus NBP2-34889
Experiment: Binding evaluation of mixture library compounds to Bcl-2 using AS-MS (affinity selection mass spectrometry)
Procedure, shortened: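 Pooled library of ~1200 compounds ([…] each, final) incubated with recombinant human Bcl-2 (20 μM final) in Tris-HCl pH 7.4, NaCl, Tween-20, DTT buffer, dark, 23° C., 1 h. Bound fraction recovered by SEC spin column, organic extraction, reversed-phase LC/MS. ASMS Ratio (%) = (A−C)/B×100 versus protein-free standard and SEC blank.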

T1 sequence (P10415 whole entry): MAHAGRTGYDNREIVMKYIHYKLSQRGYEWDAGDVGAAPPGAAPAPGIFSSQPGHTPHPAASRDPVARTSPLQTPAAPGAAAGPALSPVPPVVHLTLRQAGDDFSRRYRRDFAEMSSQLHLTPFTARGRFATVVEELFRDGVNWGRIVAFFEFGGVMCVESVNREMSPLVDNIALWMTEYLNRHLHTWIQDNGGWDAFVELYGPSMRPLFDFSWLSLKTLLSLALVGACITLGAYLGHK

CCOc1cccc(-c2ccc(C(=O)N3CCN(c4ccc(C(=O)NS(=O)(=O)CCC(F)(F)F)cc4)CC3)c3ccccc23)c1 [B2N035-01, 4-[4-[4-(3-Ethoxyphenyl)naphthalene-1-carbonyl]piperazin-1-yl]-N-(3,3,3-trifluoropropylsulfonyl)benzamide]
ASMS ratio (%) (n = 1): 0.0% | ASMS ratio (%) (n = 2): 0.0%

CCOc1cncc(-c2ccc(C(=O)N3CCN(c4ccc(C(=O)NS(=O)(=O)CCC(F)(F)F)cc4)CC3)c3ccccc23)c1 [B2N036-01, 4-[4-[4-(5-Ethoxypyridin-3-yl)naphthalene-1-carbonyl]piperazin-1-yl]-N-(3,3,3-trifluoropropylsulfonyl)benzamide]
ASMS ratio (%) (n = 1): 0.0% | ASMS ratio (%) (n = 2): 0.4%

CCOc1cccc(-c2cc(C(=O)N3CCN(c4ccc(C(=O)NS(=O)(=O)CCC(F)(F)F)cc4)CC3)cc(C(C)(C)C)c2)c1 [B2N037-01, 4-[4-[3-tert-Butyl-5-(3-ethoxyphenyl)benzoyl]piperazin-1-yl]-N-(3,3,3-trifluoropropylsulfonyl)benzamide]
ASMS ratio (%) (n = 1): 0.0% | ASMS ratio (%) (n = 2): 0.0%

CCOc1cncc(-c2cc(C(=O)N3CCN(c4ccc(C(=O)NS(=O)(=O)CCC(F)(F)F)cc4)CC3)cc(C(C)(C)C)c2)c1 [B2N038-01, 4-[4-[3-tert-Butyl-5-(5-ethoxypyridin-3-yl)benzoyl]piperazin-1-yl]-N-(3,3,3-trifluoropropylsulfonyl)benzamide]
ASMS ratio (%) (n = 1): 0.0% | ASMS ratio (%) (n = 2): 0.0%

CCOc1cncc(-c2cc(C(=O)N3CCN(c4ccc(C(=O)NS(=O)(=O)CCC(F)(F)F)cc4)CC3)cc(C(F)(F)F)c2)c1 [B2N040-01, 4-[4-[3-(5-Ethoxypyridin-3-yl)-5-(trifluoromethyl)benzoyl]piperazin-1-yl]-N-(3,3,3-trifluoropropylsulfonyl)benzamide]
ASMS ratio (%) (n = 1): 0.0% | ASMS ratio (%) (n = 2): 0.0%

CCOc1cncc(C#Cc2cc(C(=O)N3CCN(c4ccc(C(=O)NS(=O)(=O)CCC(F)(F)F)cc4)CC3)cc(C(F)(F)F)c2)c1 [B2N042-01, 4-[4-[3-[2-(5-Ethoxypyridin-3-yl)ethynyl]-5-(trifluoromethyl)benzoyl]piperazin-1-yl]-N-(3,3,3-trifluoropropylsulfonyl)benzamide]
ASMS ratio (%) (n = 1): 0.0% | ASMS ratio (%) (n = 2): 0.0%

CCOc1cccc(-c2cnn(-c3cc(C(=O)N4CCN(c5ccc(C(=O)NS(=O)(=O)CCC(F)(F)F)cc5)CC4)cc(C(F)(F)F)c3)c2)c1 [B2N043-01, 4-[4-[3-[4-(3-Ethoxyphenyl)pyrazol-1-yl]-5-(trifluoromethyl)benzoyl]piperazin-1-yl]-N-(3,3,3-trifluoropropylsulfonyl)benzamide]
ASMS ratio (%) (n = 1): −1.4% | ASMS ratio (%) (n = 2): 0.1%

CCOc1cncc(-c2cnn(-c3cc(C(=O)N4CCN(c5ccc(C(=O)NS(=O)(=O)CCC(F)(F)F)cc5)CC4)cc(C(F)(F)F)c3)c2)c1 [B2N044-01, 4-[4-[3-[4-(5-Ethoxypyridin-3-yl)pyrazol-1-yl]-5-(trifluoromethyl)benzoyl]piperazin-1-yl]-N-(3,3,3-trifluoropropylsulfonyl)benzamide]
ASMS ratio (%) (n = 1): 0.2% | ASMS ratio (%) (n = 2): 1.4%

CCOc1cccc(-c2ccccc2CN2CCN(c3ccc(C(=O)NS(=O)(=O)CCC(F)(F)F)cc3)CC2)c1 [B2N045-01, 4-[4-[[2-(3-Ethoxyphenyl)phenyl]methyl]piperazin-1-yl]-N-(3,3,3-trifluoropropylsulfonyl)benzamide]
ASMS ratio (%) (n = 1): 0.0% | ASMS ratio (%) (n = 2): 0.1%

CCOc1cncc(-c2ccccc2CN2CCN(c3ccc(C(=O)NS(=O)(=O)CCC(F)(F)F)cc3)CC2)c1 [B2N046-01, 4-[4-[[2-(5-Ethoxypyridin-3-yl)phenyl]methyl]piperazin-1-yl]-N-(3,3,3-trifluoropropylsulfonyl)benzamide]
ASMS ratio (%) (n = 1): 0.0% | ASMS ratio (%) (n = 2): −1.2%

CCOc1cccc(-c2ccc(CN3CCN(c4ccc(C(=O)NS(=O)(=O)CCC(F)(F)F)cc4)CC3)cc2C)c1 [B2N047-01, 4-[4-[[4-(3-Ethoxyphenyl)-3-methylphenyl]methyl]piperazin-1-yl]-N-(3,3,3-trifluoropropylsulfonyl)benzamide]
ASMS ratio (%) (n = 1): 0.0% | ASMS ratio (%) (n = 2): 0.0%

CCOc1cncc(-c2ccc(CN3CCN(c4ccc(C(=O)NS(=O)(=O)CCC(F)(F)F)cc4)CC3)cc2C)c1 [B2N048-01, 4-[4-[[4-(5-Ethoxypyridin-3-yl)-3-methylphenyl]methyl]piperazin-1-yl]-N-(3,3,3-trifluoropropylsulfonyl)benzamide]
ASMS ratio (%) (n = 1): 0.0% | ASMS ratio (%) (n = 2): −0.7%

CCOc1cccc(-c2ccc(CN3CCN(c4ccc(C(=O)NS(=O)(=O)CCC(F)(F)F)cc4)CC3)c(CC)c2)c1 [B2N049-01, 4-[4-[[4-(3-Ethoxyphenyl)-2-ethylphenyl]methyl]piperazin-1-yl]-N-(3,3,3-trifluoropropylsulfonyl)benzamide]
ASMS ratio (%) (n = 1): 0.0% | ASMS ratio (%) (n = 2): 0.0%

CCOc1cncc(-c2ccc(CN3CCN(c4ccc(C(=O)NS(=O)(=O)CCC(F)(F)F)cc4)CC3)c(CC)c2)c1 [B2N050-01, 4-[4-[[4-(5-Ethoxypyridin-3-yl)-2-ethylphenyl]methyl]piperazin-1-yl]-N-(3,3,3-trifluoropropylsulfonyl)benzamide]
ASMS ratio (%) (n = 1): 0.0%

CCOc1cccc(-c2ccc(CN3CCN(c4ccc(C(=O)NS(=O)(=O)CCC(F)(F)F)cc4)CC3)cc2F)c1 [B2N051-01, 4-[4-[[4-(3-Ethoxyphenyl)-3-fluorophenyl]methyl]piperazin-1-yl]-N-(3,3,3-trifluoropropylsulfonyl)benzamide]
ASMS ratio (%) (n = 1): 0.0% | ASMS ratio (%) (n = 2): 0.0%

CCOc1cncc(-c2ccc(CN3CCN(c4ccc(C(=O)NS(=O)(=O)CCC(F)(F)F)cc4)CC3)cc2F)c1 [B2N052-01, 4-[4-[[4-(5-Ethoxypyridin-3-yl)-3-fluorophenyl]methyl]piperazin-1-yl]-N-(3,3,3-trifluoropropylsulfonyl)benzamide]
ASMS ratio (%) (n = 1): 0.0% | ASMS ratio (%) (n = 2): −0.5%

CCOc1cccc(-c2ccc(CN3CCN(c4ccc(C(=O)NS(=O)(=O)CCC(F)(F)F)cc4)CC3)c(OC)c2)c1 [B2N053-01, 4-[4-[[4-(3-Ethoxyphenyl)-2-methoxyphenyl]methyl]piperazin-1-yl]-N-(3,3,3-trifluoropropylsulfonyl)benzamide]
ASMS ratio (%) (n = 1): 0.0% | ASMS ratio (%) (n = 2): 1.4%

CCOc1cncc(-c2ccc(CN3CCN(c4ccc(C(=O)NS(=O)(=O)CCC(F)(F)F)cc4)CC3)c(OC)c2)c1 [B2N054-01, 4-[4-[[4-(5-Ethoxypyridin-3-yl)-2-methoxyphenyl]methyl]piperazin-1-yl]-N-(3,3,3-trifluoropropylsulfonyl)benzamide]
ASMS ratio (%) (n = 1): 0.0% | ASMS ratio (%) (n = 2): 0.0%

CCOc1cccc(-c2cc(CN3CCN(c4ccc(C(=O)NS(=O)(=O)CCC(F)(F)F)cc4)CC3)cc(OCC)c2)c1 [B2N055-01, 4-[4-[[3-Ethoxy-5-(3-ethoxyphenyl)phenyl]methyl]piperazin-1-yl]-N-(3,3,3-trifluoropropylsulfonyl)benzamide]
ASMS ratio (%) (n = 1): 0.0% | ASMS ratio (%) (n = 2): 0.0%

CCOc1cncc(-c2cc(CN3CCN(c4ccc(C(=O)NS(=O)(=O)CCC(F)(F)F)cc4)CC3)cc(OCC)c2)c1 [B2N056-01]
ASMS ratio (%) (n = 1): 0.0% | ASMS ratio (%) (n = 2): 0.0%

CCOc1cccc(-c2cc(CN3CCN(c4ccc(C(=O)NS(=O)(=O)CCC(F)(F)F)cc4)CC3)cc(OC(C)C)c2)c1 [B2N057-01, 4-[4-[[3-(3-Ethoxyphenyl)-5-propan-2-yloxyphenyl]methyl]piperazin-1-yl]-N-(3,3,3-trifluoropropylsulfonyl)benzamide]
ASMS ratio (%) (n = 1): 0.0% | ASMS ratio (%) (n = 2): −1.8%

CCOc1cncc(-c2cc(CN3CCN(c4ccc(C(=O)NS(=O)(=O)CCC(F)(F)F)cc4)CC3)cc(OC(C)C)c2)c1 [B2N058-01, 4-[4-[[3-(5-Ethoxypyridin-3-yl)-5-propan-2-yloxyphenyl]methyl]piperazin-1-yl]-N-(3,3,3-trifluoropropylsulfonyl)benzamide]
ASMS ratio (%) (n = 1): 0.0% | ASMS ratio (%) (n = 2): 0.0%

CCOc1cccc(-c2cc(OC)c(CN3CCN(c4ccc(C(=O)NS(=O)(=O)CCC(F)(F)F)cc4)CC3)c(OC)c2)c1 [B2N059-01, 4-[4-[[4-(3-Ethoxyphenyl)-2,6-dimethoxyphenyl]methyl]piperazin-1-yl]-N-(3,3,3-trifluoropropylsulfonyl)benzamide]
ASMS ratio (%) (n = 1): 0.0% | ASMS ratio (%) (n = 2): 0.0%

CCOc1cncc(-c2cc(OC)c(CN3CCN(c4ccc(C(=O)NS(=O)(=O)CCC(F)(F)F)cc4)CC3)c(OC)c2)c1 [B2N060-01, 4-[4-[[4-(5-Ethoxypyridin-3-yl)-2,6-dimethoxyphenyl]methyl]piperazin-1-yl]-N-(3,3,3-trifluoropropylsulfonyl)benzamide]
ASMS ratio (%) (n = 1): 0.0% | ASMS ratio (%) (n = 2): 0.0%

CCOc1cccc(-c2cc(CN3CCN(c4ccc(C(=O)NS(=O)(=O)CCC(F)(F)F)cc4)CC3)cc(C(F)(F)F)c2)c1 [B2N061-01]
ASMS ratio (%) (n = 1): 0.0% | ASMS ratio (%) (n = 2): 0.0%

CCOc1cncc(-c2cc(CN3CCN(c4ccc(C(=O)NS(=O)(=O)CCC(F)(F)F)cc4)CC3)cc(C(F)(F)F)c2)c1 [B2N062-01, 4-[4-[[3-(5-Ethoxypyridin-3-yl)-5-(trifluoromethyl)phenyl]methyl]piperazin-1-yl]-N-(3,3,3-trifluoropropylsulfonyl)benzamide]
ASMS ratio (%) (n = 1): 0.0% | ASMS ratio (%) (n = 2): 0.0%

CCOc1cccc(-c2cc(CN3CCN(c4ccc(C(=O)NS(=O)(=O)CCC(F)(F)F)cc4)CC3)cc(OC(F)(F)F)c2)c1 [B2N063-01, 4-[4-[[3-(3-Ethoxyphenyl)-5-(trifluoromethoxy)phenyl]methyl]piperazin-1-yl]-N-(3,3,3-trifluoropropylsulfonyl)benzamide]
ASMS ratio (%) (n = 1): −0.3% | ASMS ratio (%) (n = 2): −3.8%
